Assays:
[1] = target: T1, isolated guinea pig ileum (histamine) (Cavia porcellus, UniProt P31389); assay: Antihistaminic action (in vitro), inhibition of histamine-induced contraction of isolated ileum; type: cell-based; settings: for inhibition at 10 µM: 10^-5 M, 30 minutes incubation, 37° C., read-out: Antihistaminic (%), contraction inhibition rate; for pD'2 (antihistaminic action): isolated guinea pig ileum, histamine, 30 min
T1 construct: An isolated guinea pig ileum was cut into about 2 cm lengths; from tissue; host or cells: isolated guinea pig ileum
Description: (§1) Antihistaminic Action and Anti-LTD4 Action (In vitro Tests)
(§2) An isolated guinea pig ileum was cut into about 2 cm lengths. Each ileum piece was suspended in a 20-ml container filled with the Krebs buffer. An isotonic contractive response by histamine or leukotriene D4 was recorded on a recorder. The Krebs buffer was controlled at 37° C., through which a mixed gas (95%O2 -5%CO2) was bubbled. First, histamine or leukotriene D4 was added to an organ bath to measure its dose-response. After the ileum piece was washed several times with the buffer, a test compound (will be identified by its example number; this will apply likewise hereinafter) of a predetermined specific concentration was added. Subsequent to incubation for 30 minutes, the dose-response of histamine or leukotriene D4 was measured again. Incidentally, in Table 7, the values (%) indicate contraction inhibition rate at 10^-5 M, while the values in parentheses show pD'2 values in the case of antihistaminic action and IC50 values in the case of anti-LTD4 action.

H1 receptor = target: T2, H1 receptor (Cavia porcellus, UniProt P31389); assay: H1 receptor binding inhibition test ([^3 H]mepyramin, guinea pig cerebromembranous protein); settings: for inhibition at 10 µM: b: 10 μM; for inhibition at 10 µM / inhibition at 100 µM: read-out: H1 receptor (%), inhibition rate; for Kd: read-out: H1 receptor, dissociation constant KD; for inhibition at 100 µM: a: 100 μM
T2 construct: guinea pig cerebromembranous protein; from tissue; host or cells: guinea pig cerebral (brain) membranes
Description: 1) H1 Receptor Binding Inhibition Test
An ice-cooled phosphate buffer was added to terminate the reaction, followed by immediate filtration through a Wattman CF/C filter. The filter was washed twice with 20 ml aliquots of the ice-cooled buffer. The radioactivity of the residue was measured by a liquid scintillation counter. From a measurement value obtained without the addition of the test compound and measurements values obtained upon addition of the test compound at various concentrations, the dose-response of the inhibitory action of the test compound was measured and the 50% inhibitory concentration (IC50) was determined. Using the Cheng-Prusoff formula, a dissociation constant was calculated from the IC50. In a binding assay, 10^-4 M R(-)dimethindene was used for the measurement of a nonspecific binding.

LTD4 receptor = target: T3, LTD4 receptor (Cavia porcellus, UniProt Q2NNR5); assay: LTD4 receptor binding inhibition test ([^3 H]leukotriene D4, guinea pig pulmomembranous protein); settings: for Kd: read-out: LTD4 receptor, dissociation constant KD; for inhibition at 10 µM: b: 10 μM; for inhibition at 10 µM / inhibition at 100 µM: read-out: LTD4 receptor (%), inhibition rate; for inhibition at 100 µM: a: 100 μM
T3 construct: guinea pig pulmomembranous protein; from tissue; host or cells: guinea pig lung membranes
T3 sequence (Q2NNR5 1-340): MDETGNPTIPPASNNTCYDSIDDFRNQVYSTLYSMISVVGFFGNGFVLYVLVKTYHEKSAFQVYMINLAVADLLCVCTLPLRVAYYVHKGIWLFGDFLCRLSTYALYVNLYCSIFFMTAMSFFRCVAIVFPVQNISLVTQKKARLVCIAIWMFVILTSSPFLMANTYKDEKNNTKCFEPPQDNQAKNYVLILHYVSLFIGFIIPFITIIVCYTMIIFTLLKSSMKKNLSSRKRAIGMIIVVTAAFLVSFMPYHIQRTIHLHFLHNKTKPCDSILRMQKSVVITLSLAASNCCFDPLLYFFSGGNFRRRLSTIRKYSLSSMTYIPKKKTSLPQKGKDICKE
Description: 2) LTD4 Receptor Binding Inhibition Test
An ice-cooled tris hydrochloride/sodium chloride buffer (10 mM/100 mM, pH 7.5) was added to terminate the reaction, followed by immediate filtration through a Wattman CF/C filter. The filter was washed twice with 20 ml aliguots of the ice-cooled buffer. The radioactivity of the residue was measured by a liquid scintillation counter. […] In a binding assay, 2 μM leukotriene D4 was used for the measurement of a nonspecific binding.

[2] = tested on: isolated guinea pig ileum (leukotriene D4); assay: Anti-LTD4 action (in vitro), inhibition of leukotriene D4-induced contraction of isolated ileum; type: cell-based; settings: Cavia porcellus; for IC50: isolated guinea pig ileum, leukotriene D4
Description: as §1, §2

T2 sequence (P31389 whole entry): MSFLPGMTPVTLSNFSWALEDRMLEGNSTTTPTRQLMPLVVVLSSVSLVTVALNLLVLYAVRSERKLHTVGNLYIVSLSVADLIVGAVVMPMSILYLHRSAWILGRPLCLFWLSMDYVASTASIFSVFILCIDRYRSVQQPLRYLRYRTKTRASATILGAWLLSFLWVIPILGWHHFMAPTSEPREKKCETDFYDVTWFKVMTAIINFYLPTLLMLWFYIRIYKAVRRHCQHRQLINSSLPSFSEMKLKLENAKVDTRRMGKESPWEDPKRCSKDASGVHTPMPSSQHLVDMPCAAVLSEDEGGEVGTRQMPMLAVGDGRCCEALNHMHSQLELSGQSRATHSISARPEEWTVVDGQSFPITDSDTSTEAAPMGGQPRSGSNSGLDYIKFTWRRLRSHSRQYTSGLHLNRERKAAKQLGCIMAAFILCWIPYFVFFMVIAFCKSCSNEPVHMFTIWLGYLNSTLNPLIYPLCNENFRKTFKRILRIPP
T1 sequence (P31389 whole entry): as above

Row | inhibition at 10 µM (H1 receptor) [%] | Kd (LTD4 receptor) [nM] | inhibition at 100 µM (H1 receptor) [%] | SMILES | other results
1 | 14 | 315 | – | CN(Cc1cccc(OCc2ccc3ccccc3n2)c1)c1ccc2c(c1)SCC(=O)N2C [96(b), 4-methyl-7-[N-methyl-N-(3-(2-quinolinylmethoxy)benzyl)amino]-3,4-dihydro-2H-1,4-benzothiazin-3-one] | inhibition at 10 µM [1]: 98%; pD'2 (antihistaminic action) [1]: 6.17; IC50 [2]: 120 nM
2 | – | – | – | Cc1ccc(OCc2ccc(OCc3nc4ccccc4n3C)cc2)c2c1NC(=O)C2(C)C [Example 39, 4-[4-(N-methylbenzimidazol-2-yl-methoxy)benzyloxy)-3,3,7-trimethyl-2,3-hydro-1H-indol-2-one] | inhibition at 10 µM [1]: 100%; pD'2 (antihistaminic action) [1]: 6.42; Kd (H1 receptor): 37400 nM; Ki (LTD4 receptor; read-out: LTD4 receptor, dissociation constant KD (converted)): 408 nM; inhibition at 10 µM ([2]; 0.5 h, 10^-5 M, 30 minutes incubation, 37° C., read-out: Anti-LTD4 action (%), contraction inhibition rate): 98%; IC50 [2]: 440 nM
3 | – | – | 28 | CC1(C)C(=O)Nc2c(OC(=O)c3cccc(OCc4ccc5ccccc5n4)c3)cccc21 [Example 61, 3,3-Dimethyl-7-[3-(2-quinolinylmethoxy)benzoyloxyl]2,3-dihydro-1H-indol-2-one] | inhibition at 10 µM (LTD4 receptor): 27%
4 | – | 30.6 | 40 | Cc1ccc(OC(=O)c2ccc(OCc3ccc4ccccc4n3)cc2)c2c1NC(=O)CC2 [Example 63, 8-Methyl-5-(4-(2-quinolinylmethoxy)benzoyloxy]-1,2,3,4-tetrahydroquinolin-2-one] | –
5 | – | – | 40 | O=C1CCc2cc(OC(=O)c3ccc(OCc4ccc5ccccc5n4)cc3)ccc2N1 [Example 64, 6-[4-(2-Quinolinylmethoxy)benzoyloxy]-1,2,3,4-tetrahydroquinolin-2-one] | inhibition at 100 µM (LTD4 receptor): 12%
6 | – | – | 43 | O=C1CCc2ccc(OC(=O)c3ccc(OCc4ccc5ccccc5n4)cc3)cc2N1 [Example 65, 7-(4-(2-Quinolinylmethoxy]benzoyloxy]-1,2,3,4-tetrahydroquinolin-2-one] | inhibition at 100 µM (LTD4 receptor): 13%
7 | – | – | 49 | CC1(C)C(=O)Nc2ccc(OC(=O)c3ccc(OCc4ccc5ccccc5n4)cc3)cc21 [Example 67, 3,3-Dimethyl-5-[4-(2-quinolinylmethoxy)benzoyloxy]-2,3-dihydro-1H-indol-2-one] | inhibition at 100 µM (LTD4 receptor): 52%
8 | – | 428 | 28 | CC1(C)C(=O)Nc2cc(OC(=O)c3ccc(OCc4ccc5ccccc5n4)cc3)ccc21 [Example 68, 3,3-Dimethyl-6-(4-(2-quinolinylmethoxy)benzoyloxy]-2,3-dihydro-1H-indol-2-one] | –
9 | – | 331 | 33 | CC1(C)C(=O)Nc2c(OC(=O)c3ccc(OCc4ccc5ccccc5n4)cc3)cccc21 [Example 69, 3,3-Dimethyl-7-(4-(2-quinolinylmethoxy)benzoyloxyy]-2,3-dihydro-1H-indol-2-one] | –
10 | – | 208 | 37 | O=C1CSc2c(cccc2NC(=O)c2cccc(OCc3ccc4ccccc4n3)c2)N1 [Example 70, 8-(3-(2-Quinolinylmethoxy)benzoylamino]-3,4-dihydro-2H-1,4-benzothiazin-3-one] | –
11 | – | – | 28 | O=C1CSc2c(cccc2NC(=O)c2ccc(OCc3ccc4ccccc4n3)cc2)N1 [Example 71, 8-[4-(2-Quinolinylmethoxy)benzoylamino]-3,4-dihydro-2H-1,4-benzothiazin-3-one] | inhibition at 100 µM (LTD4 receptor): 0%
12 | – | – | 36 | O=C1CS(=O)(=O)c2cc(OCc3cccc(OCc4ccc5ccc(Cl)cc5n4)c3)ccc2N1 [Example 75] | LTD4 receptor (%), inhibition rate (LTD4 receptor; concentration not given): 0%
13 | – | – | – | O=C1CCS(=O)(=O)c2cc(OCc3cccc(OCc4ccc5ccccc5n4)c3)ccc2N1 [Example 76] | Kd (H1 receptor): 122000 nM; inhibition at 100 µM (LTD4 receptor): 0%
14 | – | – | 43 | Cn1c(COc2cccc(COc3ccc4c(c3)S(=O)(=O)CC(=O)N4)c2)nc2ccccc21 [Example 79, 7-[3-(N-Methylbenzimidazol-2-yl-methoxy)benzyloxy]-3,4-dihydro-2H-1,4-benzothiazin-3-one 1,1-dioxide] | inhibition at 10 µM (LTD4 receptor): 42%
15 | – | – | 36 | O=C1CS(=O)(=O)c2cc(NC(=O)c3cccc(OCc4ccc5ccccc5n4)c3)ccc2N1 [Example 80] | inhibition at 10 µM (LTD4 receptor): 27%
16 | 5 | 60 | – | O=C1CCCc2cc(OCc3cccc(OCc4ncc5ccccc5n4)c3)ccc2N1 [Example 82, 7-[3-(2-quinazolinylmethoxy)benzyloxy]-2,3,4,5-tetrahydro-1H-benz[b]azepin-2-one] | –
17 | 0 | 310 | – | Cn1c(COc2cccc(COc3ccc4c(c3)CCCC(=O)N4)c2)nc2ccccc21 [Example 83] | –
18 | – | 26 | – | O=C1NCCCc2cc(OCc3cccc(OCc4ccc5ccccc5n4)c3)ccc21 [Example 84, 7-[3-(2-quinolinylmethoxy)benzyloxy]-2,3,4,5-tetrahydro-1H-benz[c]azepin-1-one] | Kd (H1 receptor): 66400 nM
19 | – | 115 | – | O=C1NCCCc2cc(OCc3ccc(OCc4ccc5ccccc5n4)cc3)ccc21 [Example 85, 7-[4-(2-quinolinylmethoxy)benzyloxy]-2,3,4,5-tetrahydro-1H-benz[c]azepin-1-one] | Kd (H1 receptor): 53100 nM
20 | 9 | 92.8 | – | O=C1NCCCc2cc(OCc3cccc(OCc4ncc5ccccc5n4)c3)ccc21 [Example 86, 7-[3-(2-quinazolinylmethoxy)benzyloxy]-2,3,4,5-tetrahydro-1H-benz[c]azepin-1-one] | –
21 | 6 | 41.3 | – | O=C1CCCc2cc(OCc3cccc(OCc4ccc5ccccc5n4)c3)ccc21 [Example 89, 6-[3-(2-quinolinylmethoxy)benzyloxy]-1-tetralone] | pD'2 (antihistaminic action) [1]: 5.09; IC50 [2]: 240 nM
22 | 8 | 12.9 | – | O=C1CCCc2cc(OCc3cccc(OCc4ncc5ccccc5n4)c3)ccc21 [Example 90, 6-[3-(2-quinazolinylmethoxy)benzyloxy]-1-tetralone] | –
23 | – | – | – | O=C1CSc2cc(N=Cc3cccc(OCc4ccc5ccccc5n4)c3)ccc2N1 [Example 91, 7-[3-(2-quinolinylmethoxy)benzylidenamino]-3,4-dihydro-2H-1,4-benzothiazin-3-one] | Kd (H1 receptor): 120 nM; inhibition at 10 µM (LTD4 receptor): 37%
24 | – | – | – | O=C1CSc2cc(N=Cc3ccc(OCc4ccc5ccccc5n4)cc3)ccc2N1 [Example 92, 7-[4-(2-quinolinylmethoxy)benzylidenamino]-3,4-dihydro-2H-1,4-benzothiazin-3-one] | Kd (H1 receptor): 120 nM; inhibition at 10 µM (LTD4 receptor): 0%
25 | 38 | 1510 | – | O=C1CSc2c(N=Cc3cccc(OCc4ccc5ccccc5n4)c3)cccc2N1 [Example 93, 8-[3-(2-quinolinylmethoxy)benzylidenamino]-3,4-dihydro-2H-1,4-benzothiazin-3-one] | –
26 | 37 | 315 | – | O=C1CSc2cc(NCc3cccc(OCc4ccc5ccccc5n4)c3)ccc2N1 [Example 94, 7-[3-(2-quinolinylmethoxy)benzylamino]-3,4-dihydro-2H-1,4-benzothiazin-3-one] | –
27 | 33 | 608 | – | O=C1CSc2c(NCc3cccc(OCc4ccc5ccccc5n4)c3)cccc2N1 [Example 95, 8-[3-(2-quinolinylmethoxy)benzylamino]-3,4-dihydro-2H-1,4-benzothiazin-3-one] | –
28 | 7 | 681 | – | CN1C(=O)CSc2c(NCc3cccc(OCc4ccc5ccccc5n4)c3)cccc21 [Example 97, 4-methyl-8-[3-(2-quinolinylmethoxy)benzylamino]-3,4-dihydro-2H-1,4-benzothiazin-3-one] | –
